# Earlier results as cited in PMC7395068, “The evolution of strategies to minimise the risk of human drug-induced liver injury (DILI) in drug discovery and development” (Archives of Toxicology, 2020).
# Where two headings read alike, the source gives them in different places. Where a SMILES comes first, the peptide text is derived from it. [ ]: non-standard residue; d: D form. The star is where a group is joined. dPhe(4-NHCONH2) = NC(=O)Nc1ccc(C[C@@H](N)C(=O)O)cc1; Dihydroorotyl(S) = O=C1C[C@@H](C(=O)*)NC(=O)N1; dPhe(4-Cl) = N[C@H](Cc1ccc(Cl)cc1)C(=O)O; Phe(4-NH2) = Nc1ccc(C[C@H](N)C(=O)O)cc1; d2Nal = N[C@H](Cc1ccc2ccccc2c1)C(=O)O; Lys(iPr) = CC(C)NCCCC[C@H](N)C(=O)O; dCit = NC(=O)NCCC[C@@H](N)C(=O)O; d3Pal = N[C@H](Cc1cccnc1)C(=O)O
# Settings: cited from earlier work
# [1] = LTKB DILIrank category, ref Chen 2016
# [2] = binary DILI call, ref Chen 2016
# [3] = binary in vivo human DILI call, ref Chen 2016
# [4] = human DILI, LTKB DILIrank category, ref Chen 2016
structure (smiles),measurement,setting,value
CC[C@H](C)C[C@H](C)CCCCCCCCC(=O)N[C@H]1C[C@@H](O)[C@@H](NCCN)NC(=O)[C@@H]2[C@@H](O)CCN2C(=O)[C@H]([C@H](O)CCN)NC(=O)[C@H]([C@H](O)[C@@H](O)c2ccc(O)cc2)NC(=O)[C@@H]2C[C@@H](O)CN2C(=O)[C@H]([C@@H](C)O)NC1=O [caspofungin],DILI severity category,[1],Ambiguous DILI-concern
same,"DILI +VE (5-8), DILI -VE (-4)",[2],-VE
N[C@@H](C(=O)N[C@@H]1C(=O)N2C(C(=O)O)=C(Cl)CS[C@H]12)c1ccccc1 [cefaclor],DILI severity category,[1],vLess-DILI-Concern
CC1=C(C(=O)O)N2C(=O)[C@@H](NC(=O)[C@H](N)c3ccc(O)cc3)[C@H]2SC1 [cefadroxil],DILI severity category,[1],vLess-DILI-Concern
Cc1nnc(SCC2=C(C(=O)O)N3C(=O)[C@@H](NC(=O)Cn4cnnn4)[C@H]3SC2)s1 [cefazolin],"DILI +VE (5-8), DILI -VE (-4)",in vivo,+VE
same,DILI severity category,in vivo,vLess-DILI-Concern
C=CC1=C(C(=O)O)N2C(=O)[C@@H](NC(=O)/C(=N\O)c3csc(N)n3)[C@H]2SC1 [cefdinir],DILI severity category,[1],vLess-DILI-Concern
CO/N=C(\C(=O)N[C@@H]1C(=O)N2C(C(=O)O)=C(/C=C\c3scnc3C)CS[C@H]12)c1csc(N)n1 [cefditoren],DILI severity category,[1],Ambiguous DILI-concern
same,"DILI +VE (5-8), DILI -VE (-4)",[2],-VE
CO/N=C(\C(=O)N[C@@H]1C(=O)N2C(C(=O)[O-])=C(C[N+]3(C)CCCC3)CS[C@H]12)c1csc(N)n1 [cefepime],"DILI +VE (5-8), DILI -VE (-4)",in vivo,+VE
same,DILI severity category,in vivo,vLess-DILI-Concern
CO[C@@]1(NC(=O)Cc2cccs2)C(=O)N2C(C(=O)O)=C(COC(N)=O)CS[C@@H]21 [cefoxitin],DILI severity category,[1],Ambiguous DILI-concern
same,"DILI +VE (5-8), DILI -VE (-4)",[2],-VE
COCC1=C(C(=O)O)N2C(=O)[C@@H](NC(=O)/C(=N\OC)c3csc(N)n3)[C@H]2SC1 [cefpodoxime],DILI severity category,[1],Ambiguous DILI-concern
same,"DILI +VE (5-8), DILI -VE (-4)",[2],-VE
CC=CC1=C(C(=O)O)N2C(=O)[C@@H](NC(=O)[C@H](N)c3ccc(O)cc3)[C@H]2SC1 [cefprozil],"DILI +VE (5-8), DILI -VE (-4)",in vivo,+VE
same,DILI severity category,in vivo,vLess-DILI-Concern
Nc1nc(/C(=C/CC(=O)O)C(=O)N[C@@H]2C(=O)N3C(C(=O)O)=CCS[C@H]23)cs1 [ceftibuten],DILI severity category,[1],Ambiguous DILI-concern
same,"DILI +VE (5-8), DILI -VE (-4)",[2],-VE
CO/N=C(\C(=O)N[C@@H]1C(=O)N2C(C(=O)O)=CCS[C@H]12)c1csc(N)n1 [ceftizoxime],DILI severity category,[1],Ambiguous DILI-concern
same,"DILI +VE (5-8), DILI -VE (-4)",[2],-VE
CO/N=C(\C(=O)N[C@@H]1C(=O)N2C(C(=O)O)=C(COC(N)=O)CS[C@H]12)c1ccco1 [cefuroxime],DILI severity category,[1],vLess-DILI-Concern
CC1=C(C(=O)O)N2C(=O)[C@@H](NC(=O)[C@H](N)C3=CCC=CC3)[C@H]2SC1 [cephradine],DILI severity category,[1],Ambiguous DILI-concern
same,"DILI +VE (5-8), DILI -VE (-4)",[2],-VE
CC(=O)N[C@H](Cc1ccc2ccccc2c1)C(=O)N[C@H](Cc1ccc(Cl)cc1)C(=O)N[C@H](Cc1cccnc1)C(=O)N[C@@H](CO)C(=O)N[C@@H](Cc1ccc(O)cc1)C(=O)N[C@H](CCCNC(N)=O)C(=O)N[C@@H](CC(C)C)C(=O)N[C@@H](CCCNC(=N)N)C(=O)N1CCC[C@H]1C(=O)N[C@H](C)C(N)=O [cetrorelix] (Ac-[d2Nal][dPhe(4-Cl)][d3Pal]SY[dCit]LRP[dA]-NH2),DILI severity category,[1],Ambiguous DILI-concern
same,"DILI +VE (5-8), DILI -VE (-4)",[2],-VE
CC1OC2(CS1)CN1CCC2CC1 (centres unmarked) [cevimeline],DILI severity category,[1],Ambiguous DILI-concern
same,"DILI +VE (5-8), DILI -VE (-4)",[2],-VE
CN1CCN(C(c2ccccc2)c2ccc(Cl)cc2)CC1 (centres unmarked) [chlorcyclizine],DILI severity category,[1],vLess-DILI-Concern
CNC1=Nc2ccc(Cl)cc2C(c2ccccc2)=[N+]([O-])C1 [chlordiazepoxide],"DILI +VE (5-8), DILI -VE (-4)",in vivo,+VE
same,DILI severity category,in vivo,vLess-DILI-Concern
CN1C(=O)CCS(=O)(=O)C1c1ccc(Cl)cc1 (centres unmarked) [chlormezanone],"DILI +VE (5-8), DILI -VE (-4)",in vivo,+VE
same,DILI severity category,in vivo,vMost-DILI-Concern
NS(=O)(=O)c1cc(C2(O)NC(=O)c3ccccc32)ccc1Cl (centres unmarked) [chlorthalidone],DILI severity category,[1],Ambiguous DILI-concern
same,"DILI +VE (5-8), DILI -VE (-4)",[2],-VE
Nc1ccn(C[C@@H](CO)OCP(=O)(O)O)c(=O)n1 [cidofovir],DILI severity category,[1],Ambiguous DILI-concern
same,"DILI +VE (5-8), DILI -VE (-4)",[2],-VE
C[C@@H](NCCCc1cccc(C(F)(F)F)c1)c1cccc2ccccc12 [cinacalcet],DILI severity category,[1],vNo-DILI-Concern
same,"DILI +VE (5-8), DILI -VE (-4)",[2],-VE
COc1ccc(C[C@@H]2c3cc(OC)c(OC)cc3CC[N@+]2(C)CCC(=O)OCCCCCOC(=O)CC[N@@+]2(C)CCc3cc(OC)c(OC)cc3[C@H]2Cc2ccc(OC)c(OC)c2)cc1OC [cisatracurium besylate],DILI severity category,[1],vNo-DILI-Concern
same,"DILI +VE (5-8), DILI -VE (-4)",[2],-VE
CCC[C@@H]1C[C@@H](C(=O)N[C@@H]([C@H]2O[C@H](SC)[C@H](OP(=O)(O)O)[C@@H](O)[C@H]2O)[C@H](C)Cl)N(C)C1 [clindamycin-2-phosphate],DILI severity category,in vivo,Ambiguous DILI-concern
CCC[C@@H]1C[C@@H](C(=O)N[C@@H]([C@H]2O[C@H](SC)[C@H](O)[C@@H](O)[C@H]2O)[C@H](C)Cl)N(C)C1 [clindamycin],DILI severity category,in vivo,vLess-DILI-Concern
Nc1nc(Cl)nc2c1ncn2[C@@H]1O[C@H](CO)[C@@H](O)[C@@H]1F [clofarabine],DILI severity category,[1],Ambiguous DILI-concern
same,"DILI +VE (5-8), DILI -VE (-4)",[2],-VE
CN(C)CCCC1c2ccccc2Nc2ccc(Cl)cc21 (centres unmarked) [clomacran],DILI severity category,[1],vMost-DILI-Concern
COc1ccc2c(C(=O)c3ccc(Cl)cc3)c(C)n(CC(=O)O)c2c1 [clometacin],DILI severity category,[1],vMost-DILI-Concern
CCN(CC)CCOc1ccc(C(=C(Cl)c2ccccc2)c2ccccc2)cc1 [clomiphene],DILI severity category,[1],vLess-DILI-Concern
COC(=O)[C@H](c1ccccc1Cl)N1CCc2sccc2C1 [clopidogrel],DILI severity category,[1],vLess-DILI-Concern
O=C(O)C1N=C(c2ccccc2)c2cc(Cl)ccc2NC1=O (centres unmarked) [clorazepate],DILI severity category,[1],Ambiguous DILI-concern
same,"DILI +VE (5-8), DILI -VE (-4)",[2],-VE
COc1ccc2c3c1O[C@H]1[C@@H](O)C=C[C@H]4[C@@H](C2)N(C)CC[C@@]341 [codeine],"DILI +VE (5-8), DILI -VE (-4)",in vivo,-VE
same,DILI severity category,in vivo,vNo-DILI-Concern
CC(=O)OCC(=O)[C@@]1(O)CC[C@H]2[C@@H]3CCC4=CC(=O)CC[C@]4(C)[C@H]3C(=O)C[C@@]21C [cortisone acetate],"DILI +VE (5-8), DILI -VE (-4)",[3],-VE
same,DILI severity category,[4],vNo-DILI-Concern
[Cl][Cu][Cl] [cupric chloride],"DILI +VE (5-8), DILI -VE (-4)",in vivo,-VE
same,DILI severity category,in vivo,vNo-DILI-Concern
NCCS [cysteamine],"DILI +VE (5-8), DILI -VE (-4)",[3],-VE
same,DILI severity category,[4],Ambiguous DILI-concern
CCCCCCCCCC(=O)N[C@@H](Cc1c[nH]c2ccccc12)C(=O)N[C@H](CC(N)=O)C(=O)N[C@@H](CC(=O)O)C(=O)N[C@@H]1C(=O)NCC(=O)N[C@@H](CCCN)C(=O)N[C@@H](CC(=O)O)C(=O)N[C@H](C)C(=O)N[C@@H](CC(=O)O)C(=O)NCC(=O)N[C@H](CO)C(=O)N[C@@H]([C@H](C)CC(=O)O)C(=O)N[C@@H](CC(=O)c2ccccc2N)C(=O)O[C@@H]1C [daptomycin],"DILI +VE (5-8), DILI -VE (-4)",[3],+VE
same,DILI severity category,[4],vLess-DILI-Concern
NC(=O)C(c1ccccc1)(c1ccccc1)[C@@H]1CCN(CCc2ccc3c(c2)CCO3)C1 [darifenacin],"DILI +VE (5-8), DILI -VE (-4)",[3],-VE
same,DILI severity category,[4],vNo-DILI-Concern
Nc1ncn([C@H]2C[C@H](O)[C@@H](CO)O2)c(=O)n1 [decitabine],"DILI +VE (5-8), DILI -VE (-4)",[3],-VE
same,DILI severity category,[4],Ambiguous DILI-concern
CC(=O)N[C@H](Cc1ccc2ccccc2c1)C(=O)N[C@H](Cc1ccc(Cl)cc1)C(=O)N[C@H](Cc1cccnc1)C(=O)N[C@@H](CO)C(=O)N[C@@H](Cc1ccc(NC(=O)[C@@H]2CC(=O)NC(=O)N2)cc1)C(=O)N[C@H](Cc1ccc(NC(N)=O)cc1)C(=O)N[C@@H](CC(C)C)C(=O)N[C@@H](CCCCNC(C)C)C(=O)N1CCC[C@H]1C(=O)N[C@H](C)C(N)=O [degarelix] (Ac-[d2Nal][dPhe(4-Cl)][d3Pal]S[Phe(4-NH2)](Dihydroorotyl(S))[dPhe(4-NHCONH2)]L[Lys(iPr)]P[dA]-NH2),"DILI +VE (5-8), DILI -VE (-4)",[3],-VE
same,DILI severity category,[4],Ambiguous DILI-concern
CC(C)Nc1cccnc1N1CCN(C(=O)c2cc3cc(NS(C)(=O)=O)ccc3[nH]2)CC1 [delavirdine],"DILI +VE (5-8), DILI -VE (-4)",[3],-VE
same,DILI severity category,[4],Ambiguous DILI-concern
CN(C)CC(c1ccc(O)cc1)C1(O)CCCCC1 (centres unmarked) [desvenlafaxine],"DILI +VE (5-8), DILI -VE (-4)",[3],+VE
same,DILI severity category,[4],vLess-DILI-Concern
CN(C)CC[C@@H](c1ccc(Cl)cc1)c1ccccn1 [dexchlorpheniramine],"DILI +VE (5-8), DILI -VE (-4)",[3],-VE
same,DILI severity category,[4],vNo-DILI-Concern
Cc1c(OCC(F)(F)F)ccnc1C[S@@+]([O-])c1nc2ccccc2[nH]1 [dexlansoprazole],"DILI +VE (5-8), DILI -VE (-4)",[3],+VE
same,DILI severity category,[4],vLess-DILI-Concern
Cc1cccc([C@H](C)c2cnc[nH]2)c1C [dexmedetomidine],"DILI +VE (5-8), DILI -VE (-4)",[3],-VE
same,DILI severity category,[4],Ambiguous DILI-concern
COC(=O)[C@H](c1ccccc1)[C@H]1CCCCN1 [dexmethylphenidate],"DILI +VE (5-8), DILI -VE (-4)",in vivo,+VE
same,DILI severity category,in vivo,vLess-DILI-Concern
CC(C)(CO)[C@@H](O)C(=O)NCCCO [dexpanthenol],"DILI +VE (5-8), DILI -VE (-4)",in vivo,-VE
same,DILI severity category,in vivo,vNo-DILI-Concern
C[C@@H](CN1CC(=O)NC(=O)C1)N1CC(=O)NC(=O)C1 [dexrazoxane],"DILI +VE (5-8), DILI -VE (-4)",[3],-VE
same,DILI severity category,[4],Ambiguous DILI-concern
C[C@H](N)Cc1ccccc1 [dextroamphetamine],"DILI +VE (5-8), DILI -VE (-4)",in vivo,-VE
same,DILI severity category,in vivo,vNo-DILI-Concern
NS(=O)(=O)c1cc(Cl)c(Cl)c(S(N)(=O)=O)c1 [dichlorphenamide],"DILI +VE (5-8), DILI -VE (-4)",[3],-VE
same,DILI severity category,[4],vNo-DILI-Concern
CCN(CC)CCOC(=O)C1(C2CCCCC2)CCCCC1 [dicyclomine],"DILI +VE (5-8), DILI -VE (-4)",[3],-VE
same,DILI severity category,[4],vNo-DILI-Concern
